Data: a melting point compilation (Tetko et al.; mined from patent text by program, amines drawn as free bases though some values may be those of a salt)

| SMILES | melting point |
| --- | --- |
| COC(=O)C1(C(F)(F)CCCCOc2ccc(Cl)cc2)CO1 (centres undefined) | 40 to 48 °C |
| CC(=O)c1cc(CS(C)(=O)=O)ccc1O | 142 to 144 °C |
| CC(=O)c1cnc2c(c1)oc(=O)n2CCc1ccncc1 | 148 to 150 °C |
| CC1(C)CC(=O)c2c(Br)cn(-c3ccccn3)c2C1 | 166 to 168 °C |
| CNC(=O)ON=C1SCCN(C(=O)NC)C1=O | 187 to 189 °C |
| CCN(C(=O)N(CC)c1ccc2c(c1)C(C)(C)CCC2(C)C)c1ccc(C(=O)O)cc1 | 169 to 172 °C |
| COc1cc(C(=O)N2CCC3(CC2)Cc2ccccc2O3)cc(OC)c1OC | 148 to 150 °C |
| CCc1noc(-c2cc3c(-c4cccs4)nccc3[nH]c2=O)n1 | 265 to 268 °C |
| Cc1ccc(NC(=O)N2CC(C)(C)NC(C)(C)CC2=O)cc1 | 126 °C |
| CS(=O)(=O)c1ccc(-c2cnn(-c3ccc(F)c(Cl)c3)c(=O)c2-c2ccc(F)cc2)cc1 | 155 to 157 °C |
| COC(=O)C1=C(CCc2ccccc2)NC(CC(=O)N2CCN(CC(=O)N3CCCC3)CC2)=C(C(=O)OC)C1c1c(Cl)cccc1Cl (centres undefined) | 180 to 184 °C |
| COC1CCN2C(=O)c3cccc(NC(=O)Nc4cnc(C)cn4)c3C2C1 (centres undefined) | 140 to 142 °C |
| Cc1noc(NS(=O)(=O)c2cccc(Cl)c2Cl)c1Br | 166 to 169 °C |
| COc1ccc(C2=NN(c3ccc(C(=O)O)cc3)C(=O)[C@H]3CC=CC[C@@H]23)cc1Cl (relative stereo) | 222 to 224 °C |
| CCOC(=O)c1c(N2CCCC2)c2cccnc2n(C)c1=O | 118 to 120 °C |
| COC(=O)c1c(N)cc(Cl)cc1[N+](=O)[O-] | 114 to 116 °C |
| Clc1ccc2c(c1)CNc1cc(Cl)ccc1O2 | 103 to 105 °C |
| N=C(O)c1cc(C(O)=NCCO)c(C(=O)O)cc1C(=O)O | 279 to 280 °C |
| COc1cc2c(Nc3ccc(Sc4nccn4C)c(Cl)c3)c(C#N)cnc2cc1N1CCC(N2CCCC2)CC1 | 225 to 229 °C |
| Cc1cc(C)c2c(c1)cc(C(=O)O)n2CC(=O)OC(C)(C)C | 210 °C |
| CC(C)=CCNC(=O)CCC(NC(=O)C=Cc1ccco1)C(=O)NCC=C(C)C (centres undefined) | 199 to 203 °C |
| O=[N+]([O-])c1ccc(C(Cl)(Cl)Br)cc1 | 51.3 to 52.9 °C |
| C1C2CC3CC1CC(C2)C3=C1C2CC3CC(C2)CC1C3 | 185 to 186 °C |
| CCC(=O)c1ccc(C(O)C(C)(C)C)cc1 (centres undefined) | 88 to 91 °C |
| Cc1ccc2c(c1)C=Cc1cc(C)ccc1C2c1cn(Cc2ccc(C(=O)Nc3nc(CC(=O)O)cs3)o2)c(=O)[nH]c1=S | 210 °C |
| CCOP(=O)(OCC)c1nc(N(CC)CC)nc(N(CC)CC)n1 | 45 to 46 °C |
| N#Cc1c(-c2cccs2)[nH]c(C(F)(F)F)c1Cl | 221 to 223 °C |

| SMILES | melting point |
| --- | --- |
| CSc1cc(C)nc(SC)c1NC(=O)CCCCSc1nc2c(C)c(Cl)cc(C(C)C)c2o1 | 155 to 156 °C |
| CCC(=O)Nc1c(Cl)cc(Cl)c(-c2nsc(C(F)(F)F)c2Cl)c1Br | 156 °C |
| O=C(O)CCC(=O)c1cc(Cl)ccc1O | 172 to 173 °C |
| Cc1cc(C(=O)O)c(Cl)c([N+](=O)[O-])c1C | 160 to 163 °C |
| CN(CCO)C(=O)Nc1ccc([N+](=O)[O-])c(C(F)(F)F)c1 | 180 to 181 °C |
| COc1ccc(S(=O)(=O)Nc2nsc(-c3ccc(Cl)cc3)n2)cc1OC | 220 to 221 °C |
| CC1=C(CN(C)C(=O)N2CCN(C(N)=O)CC2)C(C)(C)CCC1 | 140 °C |
| CCc1ccc(Cc2cn(C3OC(COC(=O)c4ccccc4)C(F)C(OC(=O)c4ccccc4)C3OC(=O)c3ccccc3)c3cccc(Cl)c23)cc1 (centres undefined) | 137 to 138 °C |
| CC1C(=NO)CC2(O)C3Cc4ccc(O)c5c4C2(CCN3CC2CC2)C1O5 (centres undefined) | 172 to 173 °C |
| CSc1cc(C(C)(C)C)c(O)c(C(C)(C)C)c1 | 69 to 71 °C |
| CCOC1CC2(C)C(CCC3C4CCC(C(=O)OC)C4(C)CC(NC4CCCCC4)C32)CC1O (centres undefined) | 110 to 112 °C |
| Cc1cc(NC(=O)C2CSc3sccc3C2=O)no1 (centres undefined) | 143 to 146 °C |
| CSC(C#N)NC(=O)c1cccc(Cl)c1 (centres undefined) | 115 to 117 °C |
| c1ccc(Nc2nc3c(s2)CCc2[nH]ncc2-3)nc1 | 297 to 299 °C |
| Cc1c(C=O)c2ccccc2n1C | 129 °C |
| Nc1cc(C(c2cc(F)ccc2F)S(=O)(=O)c2ccc(Cl)nc2)c(Cl)cn1 (centres undefined) | 157 to 158 °C |
| COc1ccccc1-c1nn(C(C)(C)C(=O)N(C)C)cc1C | 146 to 148 °C |
| Cc1cnc2nc(C(F)(F)F)[nH]c(=O)c2c1 | 270 to 272 °C |
| c1cnc(-c2nc(C3CC3)no2)cn1 | 61 to 64 °C |
| CC1=Cc2cc(C(=O)O)ccc2OC1(C)C | 169 to 171 °C |
| O=C(CCCCCCC(=O)N1CCN(CC(=O)Nc2nc3ccccc3s2)CC1)NO | 166 to 170 °C |
| N#CC1=CC2(CCSCC2)Oc2ccc([N+](=O)[O-])cc21 | 175 to 176 °C |
| CCC(CC)N(O)C(=O)Nc1cc(C(F)(F)F)cc(C(F)(F)F)c1 | 115 to 116 °C |
| CCc1nnc2ccc(-c3ccc(Cl)cc3)nn12 | 197 to 199 °C |
| Cc1cc(-n2cnnn2)cc2ccoc12 | 118 °C |
| Cc1c(N2CC[C@H](CNC3CC3)C2)c(F)cc2c(=O)c(C(=O)O)cn([C@@H]3C[C@@H]3F)c12 | 163 to 164 °C |
| COc1cccc(NN)n1 | 30 to 40 °C |

Next, values leading:

| melting point | SMILES |
| --- | --- |
| 154 to 156 °C | COc1ccc2cc(CNC(=O)c3oc4ccccc4c3C)ccc2c1Br |
| 128 to 129 °C | CC(=O)SCc1ccc(C#Cc2ccc(C=O)cc2)cc1 |
| 127 to 130 °C | Nc1nc(NCC(c2ccccc2)c2ccc(F)cc2)c2ncn(C3OC(CO)C(O)C3O)c2n1 (centres undefined) |
| 143 to 144 °C | COC(=O)c1[nH]c(C)c(Cc2ccccc2)c1N |
| 68 to 71 °C | CC(Cn1ccc(-c2ccccc2)n1)C(=O)N(C)C (centres undefined) |
| 186 °C | CCCCc1nc(S(=O)CC)c(C(=O)O)n1Cc1ccc(-c2ccccc2C(=O)O)cc1 (centres undefined) |
| 230 to 231 °C | Cc1cccc(-c2nnc(Nc3ccc(Br)c(Cl)c3)s2)c1 |
| 132 to 138 °C | CCOC(=O)C(COC(=O)COc1ccc(NC(=O)c2ccccc2-c2ccc(C(F)(F)F)cc2)c(C(=O)N(C)C)c1)(C(=O)OCC)c1ccccc1 |
| 219 to 220 °C | O=C(O)c1cccc(-c2ccc3c(c2)N(c2cc(Cl)ccc2Cl)CC3)c1 |
| 174 to 176 °C | Cc1oc(-c2ccccc2)nc1CCOc1ccc(C[C@H](NC(=O)C(F)=Cc2ccccc2)C(=O)O)cc1 |
| 199 to 200 °C | CN(Cc1ccccc1O)c1nc(N(C)Cc2ccccc2O)nc(N(C)Cc2ccccc2O)n1 |
| 117 to 118 °C | N#CCCc1oc(/C=C/c2ccccc2)nc1-c1ccccc1 |
| 81 to 82 °C | CNC(=O)/C(=N/OC)c1ccccc1COc1cccc(OC)n1 |
| 227 to 229 °C | CCn1nc(C2CC2)c(C(=O)O)c1Cc1ccc(-c2ccccc2-c2nnn[nH]2)cc1 |
| 208 to 210 °C | CCOc1ccccc1N1CCN(CCC2OCCc3cc(C(N)=O)ccc32)CC1 (centres undefined) |
| 79 to 80 °C | O=C(NCCc1cccc2ccccc12)C(F)(F)F |
| 100 °C | CN(C)CCOCC(O)c1ccc2cc(OCc3ccccc3)ccc2c1 (centres undefined) |
| 192 to 193 °C | Cc1[nH]cnc1CSCCNc1[nH]cc(Cc2ccccc2)c1[N+](=O)[O-] |
| 152 to 153 °C | Nc1ccc(N=Nc2ccccc2)cc1Cl |
| 154 to 158 °C | CCCCc1oc2ccccc2c1C(=O)NCc1ccc2c(-c3ccc(Cl)cc3)c(OCC#N)ccc2c1 |
| 210 to 212 °C | O=C(c1cc(Br)c(OCP(=O)(O)O)c(Br)c1)c1c(Cc2ccccc2)sc2ccccc12 |
| 166 to 168 °C | CC(c1ccc2c(c1)Sc1ccccc1CC2)N(O)C(N)=O (centres undefined) |
| 143 to 144 °C | COC(=O)C(=O)c1ccc(OCCCNC(=O)c2ccc3ccccc3c2)cc1 |

| melting point | SMILES |
| --- | --- |
| 209 to 212 °C | O=C1CC(c2cccc(-n3ccnn3)c2)=Nc2ccc(-c3ccccc3F)cc2N1 |
| 133 to 134 °C | CC(C)Cn1c(C(=O)OC(C)(C)C)c(O)c2cc(OCc3ccccc3)ccc2c1=O |
| 80 to 81 °C | CCCCCCCCN(Cc1ccc(CN(CCCCCCCC)OC(=O)c2ccccc2)cc1)OC(=O)c1ccccc1 |
| 175 °C | CC(C)(C)C(=O)C(C(Sc1ccccc1)c1ccc(F)cc1)n1cncn1 (centres undefined) |
| > 300 °C | O=CNc1cccc2c1C(=O)c1c-2n[nH]c1-c1ccncc1 |
| 132 °C | CC(C(=O)O)c1ccc2nc(-c3ccccc3)oc2c1 (centres undefined) |
| 256 to 258 °C | CCOC(=O)c1cc2c([nH]c3ccccc32)c(CNc2ccccc2)n1 |
| 116 to 119 °C | CCOC(=O)Cc1c(C)n(Cc2ccccc2)c2ccc(-c3ccccc3)cc12 |
| 174 to 175 °C | O=C(O)c1cccc(C(=O)C=Cc2ccc(OCc3ccccc3)cc2)c1O |
| 218 to 220 °C | CNc1nc(-c2cccc(NC(=O)Nc3ccccc3)c2)c2cc(OC)c(OC)cc2n1 |
| 261 to 263 °C | O=c1ccc2c(-c3ccccc3)nccc2[nH]1 |
| > 270 °C | CCn1c(=O)c2[nH]c(/C=C/c3cccc(F)c3)nc2n(CC)c1=O |
| 230 to 232 °C | O=C1Nc2ccccc2C12COc1ccc3c(c12)N(Cc1cccnc1)ON3 (centres undefined) |
| 75 to 78 °C | COC(=O)/C=C/[C@@H](c1ccc2ccccc2c1)c1cccc2c1ccn2C(=O)OC(C)(C)C |
| 163 to 164 °C | N#CN=C(Nc1ccc([N+](=O)[O-])cc1O)Nc1ccccc1Cl |
| 153 to 154 °C | NC(=O)NCCn1cc(Cn2ccnc2)c2ccccc21 |
| 141 to 143 °C | CC(=O)Nc1ccc(OCCOC(=O)CCCNC(=O)c2cc(OCc3ccccc3)ccc2OCc2ccccc2)cc1 |
| 139 to 140 °C | CC(C)(N)c1ccc(-c2nc(Nc3ccc(-n4ccnn4)cc3)ncc2C#N)cc1 |
| 220 to 222 °C | COc1cc2c(cc1-c1ccccc1F)NC(=O)CC(c1cccc(-n3ccnc3C)c1)=N2 |
| 75 to 76 °C | Cc1cc(Cl)ccc1N=Cc1ccc(Cl)cc1 |
| 159 to 160 °C | Cc1nc2c(OCc3ccccc3)cc(C(=O)N(C)C)cc2n1C |
| 121 to 122 °C | O=C(O)Cc1cc(-c2ccccc2)sc1NC(=O)c1ccccc1 |
